Residues, ends and D or L forms follow the SMILES beside them.
Tests used:
Parameters in all cases: species or system group A streptococcus
[1] = test system: type II Fc receptor on group A streptococcal strain 64/14/HRP; assay: Inhibition of 125I-labeled IgG binding to type II Fc receptor-positive bacteria by dipeptides or histidine; details: whole bacteria 64/14/HRP, 1.5 hr at 37° C., 20,000 cpm 125I human IgG; concentration range, see FIG. 7, FIG. 9
Method: Staphylococcus aureus Cowan I served as the representative type I Fc receptor-positive strain. The group A streptococcal strain 64/14/HRP served as a representative type II Fc receptor-positive strain. The group C streptococcal strain 26RP66 served as a representative type III Fc receptor-positive strain. All strains were grown as stationary cultures in Todd Hewitt broth (Difco) for 18-24 hr at 37° C., harvested by centrifugation and washed in phosphate buffered saline (PBS), pH 7.2.
Glycyl-L-tyrosine, glycyl-L-histidine, glycyl-glycine, glycyl-DL-leucine, glycyl-DL-phenylalanine, and L-histidine were utilized in the tests.
The detection of Fc-reactive proteins on the surface of bacteria was determined by the ability of the bacteria to bind ^125 I-labeled IgG as follows: Briefly, a stock preparation of bacteria was standardized to bind approximately 75% of the 20,000 cpm of labeled IgG added at pH 7.0. Following standardization for the Fc receptor activity, aliquots of bacteria were incubated with ^125 I-labeled IgG and the indicated amount of the dipeptides for 1.5 hr. at 37° C. […] The radioactivity associated with the bacteria was determined in an LKB autogamma counter. The cpm bound to the bacterial pellet were expressed as percent of maximum cpm bound. […]
A standard number of Staphylococcus aureus Cowan strain ( -- ), group C streptococcal strain 26RP66 (.largecircle.--.largecircle.), or the group A streptococcal strain 64/14/HRP ( .circle.--.circle. ) was incubated for 1.5 hr. at 37° C. with 20,000 cpm of ^125 I labeled human IgG in the presence of the indicated amounts of dipeptide. […] The radioactivity associated with the bacteria was determined in an LKB autogamma counter. The cpm bound to the bacterial pellet were expressed as percent of maximum cpm bound.
A standard number of group A streptococci was incubated for 1.5 hr. at 37° C. with 20,000 cpm of the appropriately ^125 I-labeled species IgG in the presence of the indicated amounts of histidine. […] The cpm bound to the bacterial pellet were expressed as percent of maximum cpm bound. […]

[2] = test system: type IIa Fc receptor (Mr 56,000; receptor for human IgG1, IgG2 and IgG4) of group A streptococcal strain 64/14/HRP; assay: Inhibition of 125I-labeled IgG1, IgG2, IgG4, pig or rabbit IgG binding to strain 64/14/HRP; details: whole bacteria 64/14/HRP, 1.5 hr at 37° C.; for inhibition of binding of labeled human IgG1, IgG2 and IgG4 to the bacteria: varying concentrations, FIG. 8 panels A, B, D; for inhibition of binding of labeled pig or rabbit IgG to the bacteria: FIG. 9
Method: (§1) In the next series of experiments, the ability of the inhibitory dipeptides, glycyl-tyrosine and glycyl-histidine, were tested for their ability to inhibit the binding of each labeled human IgG subclass to the type II receptor-positive 64/14/HRP bacteria. Glycyl-glycine was also included as a negative control.
(§2) A standard number of group A streptococci was incubated for 1.5 hr. at 37° C. with 20,000 cpm of the approprimately ^125 I-labeled human IgG subclasses in the presence of varying concentrations of dipeptide. The bacteria were pelleted by centrifugations of 1000×g for 10 min. and washed twice with 3 ml of veronal buffered saline containing 0.01 M EDTA and 0.1% gelatin. The radioactivity associated with the bacteria was determined in an LKB autogamma counter. The cpm bound to the baterial pellet were expressed as percent of maximum cpm bound. See FIG. 8 wherein Panel A represents the results obtained from the binding of ^125 I IgG1. Panel B represents the results obtained from the binding of ^125 I IgG2. Panel C represents the results obtained from the binding of ^125 I IgG3. Panel D represents the results obtained from the binding of ^125 I IgG4.
In the next series of experiments the effect of histidine, glycyl-histidineor glycyl-tyrosine on the binding of labeled pig or rabbit IgG was tested.
A standard number of group A streptococci was incubated for 1.5 hr. at 37° C. with 20,000 cpm of the appropriately ^125 I-labeled species IgG in the presence of the indicated amounts of histidine. The bacteria were washed as described above. The cpm bound to the bacterial pellet were expressed as percent of maximum cpm bound. In FIG. 9, ( .circle.--.circle. ) represents ^125 I human IgG; ( -- ) represents ^125 I pig IgG; and ( -- ) represents rabbit IgG.

[3] = test system: type IIb Fc receptor (Mr 38,000; IgG3-specific receptor) of group A streptococcal strain 64/14/HRP; assay: Inhibition of 125I-labeled human IgG3 binding to strain 64/14/HRP; details: whole bacteria 64/14/HRP, 1.5 hr at 37° C., varying concentrations; FIG. 8 panel C
Method: as §1, §2

SMILES | inhibition of binding of 125I-labeled human IgG to type II Fc receptor positive bacteria [1] | inhibition of binding of labeled human IgG1, IgG2 and IgG4 to the bacteria [2] | inhibition of binding of labeled pig or rabbit IgG to the bacteria [2] | inhibition of binding of labeled human IgG3 to the bacteria [3]
NCC(=O)N[C@@H](Cc1ccc(O)cc1)C(=O)O [glycyl-tyrosine, Glycyl-L-tyrosine] (H-Gly-Tyr-OH) | inhibition | efficiently inhibit | inhibited | minimal inhibition
NCC(=O)N[C@@H](Cc1c[nH]cn1)C(=O)O [glycyl-histidine, glycyl-L-histidine] (H-Gly-His-OH) | inhibition | efficiently inhibit | inhibited | minimal inhibition
N[C@@H](Cc1c[nH]cn1)C(=O)O [histidine, L-histidine] | inhibited | inhibited | inhibited | minimal inhibition

Reference: patent US5082931A, “Type II bacterial Fc receptors” (University of Florida Research Foundation, Inc., priority 1989, dated 1992)
